Measured values from US10653146B2, “Microbiocidal oxadiazole derivatives” (SYNGENTA PARTICIPATIONS AG, priority 2016, dated 2020).

Key:
[1] = tested on: Puccinia recondita f. Sp. Tritici; assay: Fungicidal activity against Puccinia recondita f. sp. tritici / wheat / leaf disc preventative (brown rust); assay type: in vivo; conditions: foliar, 200 ppm in the applied formulation, wheat leaf segments cv. Kanzler, inoculated 1 day after application, assessed 7 to 9 days after application, read-out: disease control compared to untreated control leaf disks
Experimental: Leaf disks or leaf segments of various plant species are cut from plants grown in a greenhouse. The cut leaf disks or segments are placed in multiwell plates (24-well format) onto water agar. The leaf disks are sprayed with a test solution before (preventative) or after (curative) inoculation. Compounds to be tested are prepared as DMSO solutions (max. 10 mg/ml) which are diluted to the appropriate concentration with 0.025% Tween20 just before spraying. The inoculated leaf disks or segments are incubated under defined conditions (temperature, relative humidity, light, etc.) according to the respective test system. A single evaluation of disease level is carried out 3 to 14 days after inoculation, depending on the pathosystem. Percent disease control relative to the untreated check leaf disks or segments is then calculated. Wheat leaf segments cv. Kanzler were placed on agar in multiwell plates (24-well format) and sprayed with the formulated test compound diluted in water. The leaf disks were inoculated with a spore suspension of the fungus 1 day after application. The inoculated leaf segments were incubated at 19° C. and 75% relative humidity (rh) under a light regime of 12 hours light/12 hours darkness in a climate cabinet and the activity of a compound was assessed as percent disease control compared to untreated when an appropriate level of disease damage appears in untreated check leaf segments (7 to 9 days after application). The following compounds at 200 ppm in the applied formulation give at least 80% disease control in this test when compared to untreated control leaf disks under the same conditions, which show extensive disease development.

[2] = tested on: Glomerella lagenarium (Colletotrichum lagenarium); assay: Fungicidal activity against Glomerella lagenarium (Colletotrichum lagenarium) liquid culture / cucumber / preventative (anthracnose); assay type: cell-based; conditions: Colletotrichum orbiculare; 20 ppm in the applied formulation; liquid culture in PDB, 24° C.; 3 to 4 days after application; read-out: disease control compared to untreated control (inhibition of growth measured photometrically)
Experimental: Mycelia fragments or conidia suspensions of a fungus prepared either freshly from liquid cultures of the fungus or from cryogenic storage, are directly mixed into nutrient broth. DMSO solutions of the test compound (max. 10 mg/ml) are diluted with 0.025% Tween20 by a factor of 50 and 10 μl of this solution is pipetted into a microtiter plate (96-well format). The nutrient broth containing the fungal spores/mycelia fragments is then added to give an end concentration of the tested compound. The test plates are incubated in the dark at 24° C. and 96% relative humidity. The inhibition of fungal growth is determined photometrically after 2 to 7 days, depending on the pathosystem, and percent antifungal activity relative to the untreated check is calculated.
Conidia of the fungus from cryogenic storage are directly mixed into nutrient broth (PDB—potato dextrose broth). After placing a (DMSO) solution of test compound into a microtiter plate (96-well format), the nutrient broth containing the fungal spores is added. The test plates are incubated at 24° C. and the inhibition of growth is measured photometrically 3 to 4 days after application.
The following compounds at 20 ppm in the applied formulation give at least 80% disease control in this test when compared to untreated control under the same conditions, which show extensive disease development.

Phakopsora pachyrhizi = assay: Fungicidal activity against Phakopsora pachyrhizi / soybean / leaf disc preventative (Asian soybean rust); assay type: in vivo; conditions: foliar, 200 ppm in the applied formulation, soybean leaf disks, inoculated one day after application, assessed 12 to 14 days after application, read-out: disease control compared to untreated control leaf disks
Experimental: (§1) Leaf disks or leaf segments of various plant species are cut from plants grown in a greenhouse. The cut leaf disks or segments are placed in multiwell plates (24-well format) onto water agar. The leaf disks are sprayed with a test solution before (preventative) or after (curative) inoculation. Compounds to be tested are prepared as DMSO solutions (max. 10 mg/ml) which are diluted to the appropriate concentration with 0.025% Tween20 just before spraying. The inoculated leaf disks or segments are incubated under defined conditions (temperature, relative humidity, light, etc.) according to the respective test system. A single evaluation of disease level is carried out 3 to 14 days after inoculation, depending on the pathosystem. Percent disease control relative to the untreated check leaf disks or segments is then calculated.
Soybean leaf disks are placed on water agar in multiwell plates (24-well format) and sprayed with the formulated test compound diluted in water. One day after application leaf discs are inoculated by spraying a spore suspension on the lower leaf surface. After an incubation period in a climate cabinet of 24-36 hours in darkness at 20° C. and 75% rh leaf disc are kept at 20° C. with 12 h light/day and 75% rh. The activity of a compound is assessed as percent disease control compared to untreated when an appropriate level of disease damage appears in untreated check leaf disks (12 to 14 days after application).
(§2) The following compounds at 200 ppm in the applied formulation give at least 80% disease control in this test when compared to untreated control leaf disks under the same conditions, which show extensive disease development.

[3] = tested on: Puccinia recondite f. Sp. Tritici; assay: Fungicidal activity against Puccinia recondite f. sp. tritici / wheat / leaf disc curative (brown rust); assay type: in vivo; conditions: foliar, 200 ppm in the applied formulation, wheat leaf segments cv. Kanzler, applied 1 day after inoculation, assessed 6 to 8 days after application, read-out: disease control compared to untreated control leaf disks
Experimental: as §1
Wheat leaf segments cv. Kanzler are placed on agar in multiwell plates (24-well format). The leaf segments are then inoculated with a spore suspension of the fungus. Plates were stored in darkness at 19° C. and 75% relative humidity. The formulated test compound diluted in water was applied 1 day after inoculation. The leaf segments were incubated at 19° C. and 75% relative humidity under a light regime of 12 hours light/12 hours darkness in a climate cabinet and the activity of a compound was assessed as percent disease control compared to untreated when an appropriate level of disease damage appears in untreated check leaf segments (6 to 8 days after application).
as §2

Row | melting point | SMILES | pest or weed control at 200 ppm [1] | inhibition at 20 ppm [2] | pest or weed control at 200 ppm (Phakopsora pachyrhizi) | pest or weed control at 200 ppm [3]
1 | 79 to 84 °C | C#CCNC(=O)C(=O)c1ccc(-c2noc(C(F)(F)F)n2)cc1 [Compound 1.41, 2-oxo-N-prop-2-ynyl-2-[4-[5-(trifluoromethyl)-1,2,4-oxadiazol-3-yl]phenyl]acetamide] | ≥ 80% | ≥ 80% | ≥ 80% | ≥ 80%
2 | 86 to 95 °C | O=C(NCC1CC1)C(=O)c1ccc(-c2noc(C(F)(F)F)n2)cc1 [Compound 1.43, N-(cyclopropyl-methyl)-2-oxo-2-[4-[5-(trifluoromethyl)-1,2,4-oxadiazol-3-yl]phenyl]acetamide] | ≥ 80% | ≥ 80% | ≥ 80% | ≥ 80%
3 | 64 to 70 °C | O=C(NC1CCCC1(F)F)C(=O)c1ccc(-c2noc(C(F)(F)F)n2)cc1 (stereo not shown) [Compound 1.34, N-(2,2-difluoro-cyclopentyl)-2-oxo-2-[4-[5-(trifluoromethyl)-1,2,4-oxadiazol-3-yl]phenyl]acetamide] | ≥ 80% | ≥ 80% | ≥ 80% | ≥ 80%

The remaining lines, values behind:

Row | SMILES | melting point | pest or weed control at 200 ppm [1] | inhibition at 20 ppm [2] | pest or weed control at 200 ppm (Phakopsora pachyrhizi) | pest or weed control at 200 ppm [3]
4 | C=CCNC(=O)C(=O)c1ccc(-c2noc(C(F)(F)F)n2)cc1 [Compound 1.25, N-allyl-2-oxo-2-[4-[5-(trifluoromethyl)-1,2,4-oxadiazol-3-yl]phenyl]acetamide] | 71 to 74 °C | ≥ 80% | ≥ 80% | ≥ 80% | ≥ 80%
5 | CCN1OCC(NC(=O)C(=O)c2ccc(-c3noc(C(F)(F)F)n3)cc2)C1=O (stereo not shown) [Compound 1.21, N-(2-ethyl-3-oxo-isoxazolidin-4-yl)-2-oxo-2-[4-[5-(trifluoromethyl)-1,2,4-oxadiazol-3-yl]phenyl]acetamide] | 162 to 165 °C | ≥ 80% | ≥ 80% | ≥ 80% | ≥ 80%
